#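 Tested at 5 concentrations; 48 h exposure; 96-well plates; endpoints linearly interpolated, else capped at highest concentration. At the TGI there is no net growth.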
# What was measured:
# Assay in all cases: DTP human tumour cell line panel, 48 h
# SK-MEL-2 melanoma = tested on: SK-MEL-2 melanoma
# OVCAR-5 ovarian = tested on: OVCAR-5 ovarian
# SW-620 colon = tested on: SW-620 colon
# SNB-75 CNS = tested on: SNB-75 CNS
# CCRF-CEM leukemia = tested on: CCRF-CEM leukemia
# HOP-18 NSCLC = tested on: HOP-18 NSCLC
# CAKI-1 renal = tested on: CAKI-1 renal
# OVCAR-3 ovarian = tested on: OVCAR-3 ovarian
# LOX IMVI melanoma = tested on: LOX IMVI melanoma
# DMS 273 small cell lung = tested on: DMS 273 small cell lung
# A549 NSCLC = tested on: A549 NSCLC
# NCI-H522 lung = tested on: NCI-H522 lung
# HCC-2998 colon = tested on: HCC-2998 colon
# SNB-78 CNS = tested on: SNB-78 CNS
# RPMI-8226 leukemia = tested on: RPMI-8226 leukemia
# SK-OV-3 ovarian = tested on: SK-OV-3 ovarian
# DLD-1 colon = tested on: DLD-1 colon
# OVCAR-4 ovarian = tested on: OVCAR-4 ovarian
# TK-10 renal = tested on: TK-10 renal
# EKVX NSCLC = tested on: EKVX NSCLC
# IGROV1 ovarian = tested on: IGROV1 ovarian
# LXFL 529 NSCLC = tested on: LXFL 529 NSCLC
# NCI-H23 lung = tested on: NCI-H23 lung
# M14 melanoma = tested on: M14 melanoma
# HOP-62 NSCLC = tested on: HOP-62 NSCLC
# SK-MEL-28 melanoma = tested on: SK-MEL-28 melanoma
# NCI-H226 lung = tested on: NCI-H226 lung
# DMS 114 small cell lung = tested on: DMS 114 small cell lung
# SF-539 CNS = tested on: SF-539 CNS
# HOP-92 NSCLC = tested on: HOP-92 NSCLC
# SNB-19 CNS = tested on: SNB-19 CNS
# KM12 colon = tested on: KM12 colon
# K-562 leukemia = tested on: K-562 leukemia
# SN12C renal = tested on: SN12C renal
# HCT-116 colon = tested on: HCT-116 colon
# NCI-H460 lung = tested on: NCI-H460 lung
# UO-31 renal = tested on: UO-31 renal
# RXF 393 renal = tested on: RXF 393 renal
# OVCAR-8 ovarian = tested on: OVCAR-8 ovarian
# UACC-62 melanoma = tested on: UACC-62 melanoma
# SF-295 CNS = tested on: SF-295 CNS
# ACHN renal = tested on: ACHN renal
# U251 CNS = tested on: U251 CNS
# COLO 205 colon = tested on: COLO 205 colon
# SR leukemia = tested on: SR leukemia
# A498 renal = tested on: A498 renal
# M19-MEL melanoma = tested on: M19-MEL melanoma
# HT29 colon = tested on: HT29 colon
# SF-268 CNS = tested on: SF-268 CNS
# UACC-257 melanoma = tested on: UACC-257 melanoma
# MALME-3M melanoma = tested on: MALME-3M melanoma
# RXF-631 renal = tested on: RXF-631 renal
# MOLT-4 leukemia = tested on: MOLT-4 leukemia
# XF 498 CNS = tested on: XF 498 CNS
# 786-0 renal = tested on: 786-0 renal
# KM20L2 colon = tested on: KM20L2 colon
# HL-60(TB) leukemia = tested on: HL-60(TB) leukemia
# HCT-15 colon = tested on: HCT-15 colon
# SK-MEL-5 melanoma = tested on: SK-MEL-5 melanoma
structure (smiles),measurement,setting,value
Cn1cnc([N+](=O)[O-])c1Sc1nnc(-c2ccc(Cl)cc2)n1C,TGI,SK-MEL-2 melanoma,34.8 µM
same,TGI,OVCAR-5 ovarian,34.8 µM
same,TGI,SW-620 colon,23.5 µM
same,TGI,SNB-75 CNS,46.7 µM
same,TGI,CCRF-CEM leukemia,22 µM
same,TGI,HOP-18 NSCLC,18.1 µM
same,TGI,CAKI-1 renal,29.7 µM
same,TGI,OVCAR-3 ovarian,26.9 µM
same,TGI,LOX IMVI melanoma,20.6 µM
same,TGI,DMS 273 small cell lung,36 µM
same,TGI,A549 NSCLC,> 100 µM
same,TGI,NCI-H522 lung,15.6 µM
same,TGI,HCC-2998 colon,32.3 µM
same,TGI,SNB-78 CNS,31.9 µM
same,TGI,RPMI-8226 leukemia,71.3 µM
same,TGI,SK-OV-3 ovarian,> 100 µM
same,TGI,DLD-1 colon,26.3 µM
same,TGI,OVCAR-4 ovarian,27.1 µM
same,TGI,TK-10 renal,31.6 µM
same,TGI,EKVX NSCLC,20.4 µM
same,TGI,IGROV1 ovarian,32.7 µM
same,TGI,LXFL 529 NSCLC,22.3 µM
same,TGI,NCI-H23 lung,32.1 µM
same,TGI,M14 melanoma,26.6 µM
same,TGI,HOP-62 NSCLC,> 100 µM
same,TGI,SK-MEL-28 melanoma,27.4 µM
same,TGI,NCI-H226 lung,65.9 µM
same,TGI,DMS 114 small cell lung,30.5 µM
same,TGI,SF-539 CNS,37.4 µM
same,TGI,HOP-92 NSCLC,25.8 µM
same,TGI,SNB-19 CNS,> 100 µM
same,TGI,KM12 colon,49.9 µM
same,TGI,K-562 leukemia,34.2 µM
same,TGI,SN12C renal,28.4 µM
same,TGI,HCT-116 colon,25.8 µM
same,TGI,NCI-H460 lung,55.7 µM
same,TGI,UO-31 renal,32.8 µM
same,TGI,RXF 393 renal,17 µM
same,TGI,OVCAR-8 ovarian,46 µM
same,TGI,UACC-62 melanoma,29 µM
same,TGI,SF-295 CNS,> 100 µM
same,TGI,ACHN renal,29.3 µM
same,TGI,U251 CNS,30.4 µM
same,TGI,COLO 205 colon,24.3 µM
same,TGI,SR leukemia,33.7 µM
same,TGI,A498 renal,81.8 µM
same,TGI,M19-MEL melanoma,27.5 µM
same,TGI,HT29 colon,32 µM
same,TGI,SF-268 CNS,54.7 µM
same,TGI,UACC-257 melanoma,25.5 µM
same,TGI,MALME-3M melanoma,23 µM
same,TGI,RXF-631 renal,30.9 µM
same,TGI,MOLT-4 leukemia,66.1 µM
CC(C)C(N=C1CC2CCC1(C(=O)Nc1ccccc1O)C2(C)C)c1ccccc1 (stereo unspecified),TGI,SK-MEL-2 melanoma,> 10 µM
same,TGI,OVCAR-5 ovarian,> 10 µM
same,TGI,SW-620 colon,> 10 µM
same,TGI,SNB-75 CNS,> 10 µM
same,TGI,CCRF-CEM leukemia,> 10 µM
same,TGI,HOP-18 NSCLC,> 10 µM
same,TGI,CAKI-1 renal,> 10 µM
same,TGI,OVCAR-3 ovarian,> 10 µM
same,TGI,LOX IMVI melanoma,> 10 µM
same,TGI,DMS 273 small cell lung,> 10 µM
same,TGI,A549 NSCLC,> 10 µM
same,TGI,NCI-H522 lung,> 10 µM
same,TGI,HCC-2998 colon,> 10 µM
same,TGI,XF 498 CNS,> 10 µM
same,TGI,SNB-78 CNS,> 10 µM
same,TGI,RPMI-8226 leukemia,> 10 µM
same,TGI,SK-OV-3 ovarian,> 10 µM
same,TGI,DLD-1 colon,> 10 µM
same,TGI,OVCAR-4 ovarian,> 10 µM
same,TGI,TK-10 renal,> 10 µM
same,TGI,EKVX NSCLC,> 10 µM
same,TGI,IGROV1 ovarian,> 10 µM
same,TGI,LXFL 529 NSCLC,> 10 µM
same,TGI,786-0 renal,> 10 µM
same,TGI,NCI-H23 lung,> 10 µM
same,TGI,M14 melanoma,> 10 µM
same,TGI,HOP-62 NSCLC,> 10 µM
same,TGI,SK-MEL-28 melanoma,> 10 µM
same,TGI,NCI-H226 lung,> 10 µM
same,TGI,DMS 114 small cell lung,> 10 µM
same,TGI,KM20L2 colon,> 10 µM
same,TGI,SF-539 CNS,> 10 µM
same,TGI,HOP-92 NSCLC,> 10 µM
same,TGI,SNB-19 CNS,> 10 µM
same,TGI,KM12 colon,> 10 µM
same,TGI,K-562 leukemia,> 10 µM
same,TGI,SN12C renal,> 10 µM
same,TGI,HCT-116 colon,> 10 µM
same,TGI,NCI-H460 lung,> 10 µM
same,TGI,UO-31 renal,> 10 µM
same,TGI,OVCAR-8 ovarian,> 10 µM
same,TGI,UACC-62 melanoma,> 10 µM
same,TGI,SF-295 CNS,> 10 µM
same,TGI,ACHN renal,> 10 µM
same,TGI,U251 CNS,> 10 µM
same,TGI,HL-60(TB) leukemia,> 10 µM
same,TGI,COLO 205 colon,> 10 µM
same,TGI,SR leukemia,> 10 µM
same,TGI,A498 renal,> 10 µM
same,TGI,M19-MEL melanoma,> 10 µM
same,TGI,HT29 colon,> 10 µM
same,TGI,HCT-15 colon,> 10 µM
same,TGI,SK-MEL-5 melanoma,> 10 µM
same,TGI,SF-268 CNS,> 10 µM
same,TGI,UACC-257 melanoma,> 10 µM
same,TGI,MALME-3M melanoma,> 10 µM
same,TGI,RXF-631 renal,> 10 µM
same,TGI,MOLT-4 leukemia,> 10 µM
O=S1c2ccccc2N=C(c2cccs2)CC1c1ccccc1O (stereo unspecified),TGI,SK-MEL-2 melanoma,> 100 µM
same,TGI,OVCAR-5 ovarian,> 100 µM
same,TGI,SW-620 colon,> 100 µM
same,TGI,SNB-75 CNS,> 100 µM
same,TGI,CCRF-CEM leukemia,> 100 µM
same,TGI,CAKI-1 renal,> 100 µM
same,TGI,OVCAR-3 ovarian,> 100 µM
same,TGI,LOX IMVI melanoma,> 100 µM
same,TGI,A549 NSCLC,> 100 µM
same,TGI,NCI-H522 lung,> 100 µM
same,TGI,HCC-2998 colon,> 100 µM
same,TGI,XF 498 CNS,> 100 µM
same,TGI,RPMI-8226 leukemia,> 100 µM
same,TGI,SK-OV-3 ovarian,> 100 µM
same,TGI,DLD-1 colon,> 100 µM
same,TGI,OVCAR-4 ovarian,> 100 µM
same,TGI,TK-10 renal,> 100 µM
same,TGI,EKVX NSCLC,> 100 µM
same,TGI,IGROV1 ovarian,> 100 µM
same,TGI,LXFL 529 NSCLC,> 100 µM
same,TGI,786-0 renal,> 100 µM
same,TGI,NCI-H23 lung,> 100 µM
same,TGI,M14 melanoma,> 100 µM
same,TGI,HOP-62 NSCLC,> 100 µM
same,TGI,SK-MEL-28 melanoma,> 100 µM
same,TGI,NCI-H226 lung,> 100 µM
same,TGI,DMS 114 small cell lung,> 100 µM
same,TGI,KM20L2 colon,> 100 µM
same,TGI,SF-539 CNS,> 100 µM
same,TGI,SNB-19 CNS,> 100 µM
same,TGI,KM12 colon,> 100 µM
same,TGI,K-562 leukemia,> 100 µM
same,TGI,SN12C renal,> 100 µM
same,TGI,NCI-H460 lung,> 100 µM
same,TGI,UO-31 renal,> 100 µM
same,TGI,RXF 393 renal,> 100 µM
same,TGI,OVCAR-8 ovarian,> 100 µM
same,TGI,UACC-62 melanoma,> 100 µM
same,TGI,SF-295 CNS,> 100 µM
same,TGI,ACHN renal,> 100 µM
same,TGI,HL-60(TB) leukemia,> 100 µM
same,TGI,COLO 205 colon,> 100 µM
same,TGI,A498 renal,99.8 µM
same,TGI,M19-MEL melanoma,> 100 µM
same,TGI,HT29 colon,> 100 µM
same,TGI,HCT-15 colon,> 100 µM
same,TGI,SK-MEL-5 melanoma,> 100 µM
same,TGI,SF-268 CNS,> 100 µM
same,TGI,UACC-257 melanoma,> 100 µM
same,TGI,MALME-3M melanoma,> 100 µM
same,TGI,RXF-631 renal,> 100 µM
same,TGI,MOLT-4 leukemia,> 100 µM
O/N=C1/C(=C/c2ccc(Br)cc2)CCCC1C(NO)c1ccc(Br)cc1 (stereo unspecified),TGI,SK-MEL-2 melanoma,34 µM
same,TGI,OVCAR-5 ovarian,24.6 µM
same,TGI,SW-620 colon,38.6 µM
same,TGI,SNB-75 CNS,36.4 µM
same,TGI,CCRF-CEM leukemia,51.2 µM
same,TGI,HOP-18 NSCLC,33.8 µM
same,TGI,OVCAR-3 ovarian,31.1 µM
same,TGI,LOX IMVI melanoma,35.5 µM
same,TGI,DMS 273 small cell lung,25.8 µM
same,TGI,A549 NSCLC,32.1 µM
same,TGI,NCI-H522 lung,32.9 µM
same,TGI,SNB-78 CNS,32.6 µM
same,TGI,RPMI-8226 leukemia,48.4 µM
same,TGI,SK-OV-3 ovarian,44.8 µM
same,TGI,OVCAR-4 ovarian,23.3 µM
same,TGI,TK-10 renal,33 µM
same,TGI,IGROV1 ovarian,32.4 µM
same,TGI,LXFL 529 NSCLC,27.9 µM
same,TGI,786-0 renal,32.9 µM
same,TGI,M14 melanoma,29.9 µM
same,TGI,SK-MEL-28 melanoma,34.4 µM
same,TGI,DMS 114 small cell lung,29.6 µM
same,TGI,KM20L2 colon,32.5 µM
same,TGI,SF-539 CNS,44.8 µM
same,TGI,HOP-92 NSCLC,26.5 µM
same,TGI,SNB-19 CNS,32 µM
same,TGI,KM12 colon,38.3 µM
same,TGI,K-562 leukemia,> 100 µM
same,TGI,SN12C renal,24.9 µM
same,TGI,HCT-116 colon,31.3 µM
same,TGI,UO-31 renal,31.3 µM
same,TGI,RXF 393 renal,31.1 µM
same,TGI,OVCAR-8 ovarian,31.5 µM
same,TGI,UACC-62 melanoma,27.8 µM
same,TGI,SF-295 CNS,30.4 µM
same,TGI,ACHN renal,31.2 µM
same,TGI,U251 CNS,45.3 µM
same,TGI,HL-60(TB) leukemia,> 100 µM
same,TGI,COLO 205 colon,28.7 µM
same,TGI,A498 renal,23 µM
same,TGI,M19-MEL melanoma,32.1 µM
same,TGI,HT29 colon,35.4 µM
same,TGI,HCT-15 colon,31.8 µM
same,TGI,SF-268 CNS,34.1 µM
same,TGI,UACC-257 melanoma,33.3 µM
same,TGI,MALME-3M melanoma,31.9 µM
same,TGI,RXF-631 renal,30.8 µM
same,TGI,MOLT-4 leukemia,31.7 µM
